Tests used:
Format in all cases: cell-based
[1] = molecular target: T1, human β2-adrenergic receptor (Homo sapiens, UniProt P07550); assay: cAMP accumulation (SPA) in CHO cells transfected with human β2 adrenergic receptor; conditions: for EC50: CHO cells transfected with human β2-AR, cAMP, 15 min incubation, 10^−8 to 10^−4 M, read-out: beta-2 EC50; for beta-2 (IA) maximal response relative to isoproterenol: IA = % activity compound / % activity isoproterenol at 10^−5 M, CHO human β2 cells
T1 construct: expressed in transfected cells; host or cells: CHO cells
Experimental: (§1) The ability of compounds of this invention to treat or inhibit disorders related to insulin resistance or hyperglycemia was established with representative compounds of this invention in the following standard pharmacological test procedures, which measured the binding selectivity to the β1, β2, and β3 adrenergic receptors. Binding to the receptors was measured in Chinese Hamster ovary (CHO) cells that were transfected with adrenergic receptors. The following briefly summarizes the procedures used and results obtained.
(§2) Transfection of CHO cells with β1 and β2 adrenergic receptors: CHO cells were transfected with human β1- or β2-adrenergic receptors as described in Tate, K. M., Eur. J. Biochem., 196:357-361 (1991).
(§3) Binding Procedure: Clones expressing receptor levels of 70 to 110 fmoles/mg protein were used in the test procedures. CHO cells were grown in 24-well tissue culture plates in Dulbecco's Modified Eagle Media with 10% fetal bovine serum, MEM non-essential amino acids, Penicillin-Streptompycin and Geneticin. On the day of test procedure, growth medium was replaced with preincubation media (Dulbecco's Modified Eagle Media and incubated for 30 minutes at 37° C. Preincubation medium was replaced with 0.2 ml treatment medium containing DMEM media containing 250 μM IBMX (isobutyl-1-methylxantine) plus 1 mM ascorbic acid with test compound dissolved in DMSO. Test compounds were tested over a concentration range of 10^−9 M to 10^−5 M for β3 cells and 10^−8 to 10^−4 M for β1 and β2 transfected cells. Isoproterenol (10^−5 M) was used as an internal standard for comparison of activity. Cells were incubated at 37° C. on a rocker for 30 min with the β3 cells and 15 min for β1 and β2 cells. Incubation was stopped with the addition of 0.2N HCl and neutralized with 2.5N NaOH. The plates, containing the cells and neutralized media, were stored at −20 degrees celsius until ready to test for cAMP using the SPA test kit (Amersham).
(§4) Data Analysis and Results: Data collected from the SPA test procedure were analyzed as per cent of the maximal isoproterenol response at 10^−5 M. Activity curves were plotted using the SAS statistical and graphics software. EC50 values were generated for each compound and the maximal response (IA) developed for each compound is compared to the maximal response of isoproternol at 10^−5 M from the following formula:
(§5) IA=% activity compound/% activity isoproterenol

[2] = molecular target: T2, human β1-adrenergic receptor (Homo sapiens, UniProt P08588); assay: cAMP accumulation (SPA) in CHO cells transfected with human β1 adrenergic receptor; conditions: for EC50: CHO cells transfected with human β1-AR, cAMP, 15 min incubation, 10^−8 to 10^−4 M, read-out: beta-1 EC50; for beta-1 (IA) maximal response relative to isoproterenol: IA = % activity compound / % activity isoproterenol at 10^−5 M, CHO human β1 cells
T2 construct: expressed in transfected cells; host or cells: CHO cells
T2 sequence (P08588 whole entry): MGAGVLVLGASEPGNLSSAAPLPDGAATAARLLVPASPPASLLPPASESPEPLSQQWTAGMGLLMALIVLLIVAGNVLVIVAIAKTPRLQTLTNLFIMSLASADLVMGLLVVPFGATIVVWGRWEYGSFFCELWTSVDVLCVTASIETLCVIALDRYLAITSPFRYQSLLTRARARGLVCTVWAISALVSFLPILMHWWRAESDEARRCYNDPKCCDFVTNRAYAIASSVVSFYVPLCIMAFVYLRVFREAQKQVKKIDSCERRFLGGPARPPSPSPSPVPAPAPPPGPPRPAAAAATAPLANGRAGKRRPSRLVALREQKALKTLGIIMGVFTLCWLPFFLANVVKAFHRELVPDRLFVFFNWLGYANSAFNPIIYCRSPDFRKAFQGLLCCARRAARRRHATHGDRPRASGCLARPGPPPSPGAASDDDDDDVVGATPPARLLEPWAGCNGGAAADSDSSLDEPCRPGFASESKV
Experimental: as §1, §2, §3, §4, §5

[3] = molecular target: T3, human β3 adrenergic receptor (Homo sapiens, UniProt P13945); assay: cAMP accumulation (SPA) in CHO cells transfected with human β3 adrenergic receptor; conditions: for EC50: CHO cells expressing human β3-AR, cAMP, 30 min incubation, 10^−9 M to 10^−5 M, read-out: beta-3 EC50; for beta-3 (IA) maximal response relative to isoproterenol: IA = % activity compound / % activity isoproterenol at 10^−5 M, CHO human β3 cells
T3 construct: Full length β3 AR clones (402 amino acids) containing the last 6 amino acids of hβ3— AR are prepared; expressed in transfected cells; host or cells: CHO cells
T3 sequence (P13945 whole entry): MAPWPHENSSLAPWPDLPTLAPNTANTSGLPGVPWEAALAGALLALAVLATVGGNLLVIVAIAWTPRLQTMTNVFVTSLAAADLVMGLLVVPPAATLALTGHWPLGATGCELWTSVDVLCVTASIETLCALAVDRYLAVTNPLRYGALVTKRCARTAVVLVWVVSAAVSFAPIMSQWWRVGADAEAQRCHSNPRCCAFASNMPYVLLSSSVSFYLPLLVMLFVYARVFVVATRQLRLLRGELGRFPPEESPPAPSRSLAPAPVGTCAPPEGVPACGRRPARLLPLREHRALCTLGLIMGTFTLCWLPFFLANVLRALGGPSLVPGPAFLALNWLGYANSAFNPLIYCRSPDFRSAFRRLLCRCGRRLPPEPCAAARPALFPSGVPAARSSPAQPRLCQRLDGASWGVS
Experimental: as §1
Cloning of Human β3-AR Genomic DNA: cDNA was constructed by ligating four polymerase chain reaction (PCR) products using the following primers: an ATG-Narl fragment, sense primer 5′-[…]3′ and anti-sense primer 5′[…]3′; a Narl-Accl fragment, 5′[…]3′ as sense and 5′[…]3′ as anti-sense primer; an Accli-Styl fragment, sense primer 5′[…]3′ and anti-sense primer 5′[…]3′ and a Styl-TAG fragment, with sense primer 5′[…]3′ and anti-sense primer 5′[…]3′. The corresponding primer sequences are described in Mantzoros, C. S., et.al., Diabetes 45: 909-914 (1996). The four fragments are ligated into a pUC 18 plasmid (Gibco-BRL) and sequenced. Full length β3 AR clones (402 amino acids) containing the last 6 amino acids of hβ3— AR are prepared with the β3-βARpcDNA3from ATTC.
as §3, §4, §5

CCCCN(CC(=O)O)S(=O)(=O)c1ccc(N2CCC(NC[C@H](O)c3ccc(O)c(NS(C)(=O)=O)c3)CC2)cc1 [Example 20, [Butyl-(4-{4-[(2R)-2-hydroxy-2-(4-hydroxy-3-methanesulfonylamino-phenyl)-ethylamino]-piperidin-1-yl}-benzenesulfonyl)-amino]-acetic Acid]
EC50 [1]: 10000 nM
beta-2 (IA) maximal response relative to isoproterenol [1]: (0.3)
EC50 [2]: 10000 nM
beta-1 (IA) maximal response relative to isoproterenol [2]: (0.4)
EC50 [3]: 10 nM
beta-3 (IA) maximal response relative to isoproterenol [3]: (1)

1-(4-{4-[2-Hydroxy-2-(4-hydroxy-3-methanesulfonylmethyl-phenyl)ethylamino]-piperidin-1-yl}-benzenesulfonylamino)cyclohexane Carboxylic Acid Ethyl Ester [Example 43]
EC50 [1]: 90 nM
beta-2 (IA) maximal response relative to isoproterenol [1]: (0.68)
EC50 [2]: 1280 nM
beta-1 (IA) maximal response relative to isoproterenol [2]: (0.58)
EC50 [3]: 1 nM
beta-3 (IA) maximal response relative to isoproterenol [3]: (1)

CS(=O)(=O)Nc1cc([C@@H](O)CNC2CCN(c3ccc(S(=O)(=O)N4CCCCC4)cc3)CC2)ccc1O [Example 42, N-{2-Hydroxy-5-[(1R)-1-hydroxy-2-({1-[4-(1-piperidinylsulfonyl)phenyl]-piperidinyl}-4-amino)ethyl]phenyl}methanesulfonamide]
EC50 [1]: 370 nM
beta-2 (IA) maximal response relative to isoproterenol [1]: (0.35)
EC50 [2]: 1320 nM
beta-1 (IA) maximal response relative to isoproterenol [2]: (0.69)
EC50 [3]: 1 nM
beta-3 (IA) maximal response relative to isoproterenol [3]: (1)

CCOC(=O)CN(CC(C)C)S(=O)(=O)c1ccc(N2CCC(NC[C@H](O)c3ccc(O)c(NS(C)(=O)=O)c3)CC2)cc1 [Example 32, [(4-{4-[(2R)-2-Hydroxy-2-(4-hydroxy-3-methanesulfonylamino-phenyl)-ethylamino]-piperidin-1-yl}-benzenesulfonyl)-isobutyl-amino]-acetic Acid Ethyl Ester]
EC50 [1]: 10000 nM
beta-2 (IA) maximal response relative to isoproterenol [1]: (0.57)
EC50 [2]: 6700 nM
beta-1 (IA) maximal response relative to isoproterenol [2]: (0.48)
EC50 [3]: 4 nM
beta-3 (IA) maximal response relative to isoproterenol [3]: (1)

COc1ccc(NS(=O)(=O)c2ccc(N3CCC(NC[C@H](O)COc4cccc5[nH]c(=O)[nH]c45)CC3)cc2)cc1OC [Example 7, N-(3,4-Dimethoxy-phenyl)-4-{4-[(2S)-2-hydroxy-3-(2-oxo-2,3-dihydro-1H-benzoimidazol-4-yloxy)-propylamino]-piperidin-1-yl}-benzenesulfonamide]
beta-2 (IA) maximal response relative to isoproterenol [1]: (0.01)
EC50 [2]: 600 nM
beta-1 (IA) maximal response relative to isoproterenol [2]: (0.15)
EC50 [3]: 20 nM
beta-3 (IA) maximal response relative to isoproterenol [3]: (0.8)

CCOC(=O)[C@@H](NS(=O)(=O)c1ccc(N2CCC(NC[C@H](O)c3ccc(O)c(NS(C)(=O)=O)c3)CC2)cc1)C(C)C [Example 38, Ethyl (2S)-2-{[(4-{4-[((2R)-2-hydroxy-2-{4-hydroxy-3-[(methylsulfonyl)amino]-phenyl}ethyl)amino]-1-piperidinyl}phenyl)sulfonyl]amino}-3-methylbutanoate]
EC50 [1]: 380 nM
beta-2 (IA) maximal response relative to isoproterenol [1]: (0.32)
EC50 [2]: 1100 nM
beta-1 (IA) maximal response relative to isoproterenol [2]: (0.5)
EC50 [3]: 32 nM
beta-3 (IA) maximal response relative to isoproterenol [3]: (1.1)

CC(C)CNS(=O)(=O)c1ccc(N2CCC(NC[C@H](O)c3ccc(O)c(NS(C)(=O)=O)c3)CC2)cc1 [Example 27, 4-{4-[(2R)-2-Hydroxy-2-(4-hydroxy-3-methanesulfonylamino-phenyl)-ethylamino]-piperidin-1-yl}-N-isobutyl-benzenesulfonamide]
EC50 [1]: 540 nM
beta-2 (IA) maximal response relative to isoproterenol [1]: (0.29)
EC50 [2]: 420 nM
beta-1 (IA) maximal response relative to isoproterenol [2]: (0.22)
EC50 [3]: 2 nM
beta-3 (IA) maximal response relative to isoproterenol [3]: (1)

CCOC(=O)[C@H](CC(C)C)NS(=O)(=O)c1ccc(N2CCC(NC[C@H](O)c3ccc(O)c(NS(C)(=O)=O)c3)CC2)cc1 [Example 37, Ethyl (2S)-2-{[(4-{4-[((2R)-2-Hydroxy-2-{4-hydroxy-3-[(methylsulfonyl)amino]-phenyl}ethyl)amino]-1-piperidinyl}phenyl)sulfonyl]amino}-4-methylpentanoate]
EC50 [1]: 900 nM
beta-2 (IA) maximal response relative to isoproterenol [1]: (0.42)
EC50 [2]: 5600 nM
beta-1 (IA) maximal response relative to isoproterenol [2]: (0.43)
EC50 [3]: 16 nM
beta-3 (IA) maximal response relative to isoproterenol [3]: (0.89)

CS(=O)(=O)Nc1cc([C@@H](O)CNC2CCN(c3ccc(S(=O)(=O)N(CC(=O)O)CC(=O)O)cc3)CC2)ccc1O [Example 55, 2-((Carboxymethyl)[(4-{4-[((2R)-2-hydroxy-2-{4-hydroxy-3-[(methylsulfonyl)amino]phenyl)ethyl)amino]-1-piperidinyl}phenyl)sulfonyl]amino}acetic Acid]
EC50 [3]: 410 nM
beta-3 (IA) maximal response relative to isoproterenol [3]: (0.94)

CS(=O)(=O)Nc1cc([C@@H](O)CNC2CCN(c3ccc(S(=O)(=O)N(CC(=O)O)CC4CC4)cc3)CC2)ccc1O [Example 31, [Cyclopropylmethyl-(4-{4-[(2R)-2-hydroxy-2-(4-hydroxy-3-methanesulfonylamino-phenyl)-ethylamino]-piperidin-1-yl}-benzenesulfonyl)-amino]-acetic Acid]
EC50 [1]: 12000 nM
beta-2 (IA) maximal response relative to isoproterenol [1]: (0.33)
EC50 [2]: 20000 nM
beta-1 (IA) maximal response relative to isoproterenol [2]: (0.96)
EC50 [3]: 7 nM
beta-3 (IA) maximal response relative to isoproterenol [3]: (1.2)

1-(4-{4-[2-Hydroxy-2-(4-hydroxy-3-methanesulfonylmethyl-phenyl)-ethylamino]-piperidin-1-yl}-benzenesulfonylamino)-cyclopentane Carboxylic Acid Ethyl Ester [Example 40]
EC50 [1]: 40 nM
beta-2 (IA) maximal response relative to isoproterenol [1]: (0.31)
EC50 [2]: 1900 nM
beta-1 (IA) maximal response relative to isoproterenol [2]: (0.45)
EC50 [3]: 4 nM
beta-3 (IA) maximal response relative to isoproterenol [3]: (1.2)

CS(=O)(=O)Nc1cc(C(O)CNC2CCN(c3ccc(S(=O)(=O)NCc4ccccc4)cc3)CC2)ccc1O (centres unmarked) [Example 5, N-Benzyl-4-{4-[2-hydroxy-2-(4-hydroxy-3-methanesulfonylamino-phenyl)-ethylamino]-piperidin-1-yl}-benzenesulfonamide]
beta-2 (IA) maximal response relative to isoproterenol [1]: (0.07)
EC50 [2]: 2200 nM
beta-1 (IA) maximal response relative to isoproterenol [2]: (0.59)
EC50 [3]: 16 nM
beta-3 (IA) maximal response relative to isoproterenol [3]: (0.98)

CCOC(=O)[C@H]1CCCN1S(=O)(=O)c1ccc(N2CCC(NC[C@H](O)c3ccc(O)c(NS(C)(=O)=O)c3)CC2)cc1 [Example 30, 1-(4-{4-[(2R)-2-Hydroxy-2-(4-hydroxy-3-methanesulfonylamino-phenyl)-ethylamino]-piperidin-1-yl}-benzenesulfonyl)-pyrrolidine-(2R)-2-carboxylic Acid Ethyl Ester]
EC50 [1]: 3600 nM
beta-2 (IA) maximal response relative to isoproterenol [1]: (0.36)
EC50 [2]: 9800 nM
beta-1 (IA) maximal response relative to isoproterenol [2]: (1.1)
EC50 [3]: 4 nM
beta-3 (IA) maximal response relative to isoproterenol [3]: (1.2)

O=S(=O)(NCc1ccccc1)c1ccc(N2CCC(NC[C@H](O)COc3ccc(O)cc3)CC2)cc1 [Example 6, N-Benzyl-4-{4-[(2S)-2-hydroxy-3-(4-hydroxy-phenoxy)-propylamino]-piperidin-1-yl}-benzenesulfonamide]
EC50 [3]: 200 nM
beta-3 (IA) maximal response relative to isoproterenol [3]: (0.76)

— patent US6444685B1, “N-(4-sulfonylaryl)Cyclylamine 2-hydroxyethylamines as beta-3 adrenergic receptor agonists” (Wyeth, priority 2000, dated 2002)
